target: STING (Homo sapiens, UniProt Q86WV6, G230A/H232R/R293Q/R71H); experiment: STING reporter assay: THP1-Dual KO-IFNAR2 cells stimulated with 2′3′cGAMP, luciferase reporter activity; type: cell-based; settings: 15 μM 2′3′cGAMP, 24h, class symbols
Description: STING pathway activation by the compounds described herein were measured using THP1-Dual™ cells (KO-IFNAR2).
THP1-Dual™ KO-IFNAR2 Cells (obtained from invivogen) were maintained in RPMI, 10% FCS, 5 ml P/S, 2 mM L-glut, 10 mM Hepes, and 1 mM sodium pyruvate. Compounds were spotted in empty 384 well tissue culture plates (Greiner 781182) by Echo for a final concentration of 0.0017-100 μM. Cells were plated into the TC plates at 40 μL per well, 2×10E6 cells/mL. For activation with STING ligand, 2′3′cGAMP (MW 718.38, obtained from Invivogen), was prepared in Optimem media.
The following solutions were prepared for each 1×384 plate: • Solution A: 2 mL Optimem with one of the following stimuli: • 60 uL of 10 mM 2′3′cGAMP ->150 μM stock • Solution B: 2 mL Optimem with 60 μL Lipofectamine 2000->Incubate 5 min at RT
2 mL of solution A and 2 ml Solution B was mixed and incubated for 20 min at room temperature (RT). 20 uL of transfection solution (A+B) was added on top of the plated cells, with a final 2′3′cGAMP concentration of 15 μM. The plates were then centrifuged immediately at 340 g for 1 minute, after which they were incubated at 37° C., 5% CO2, >98% humidity for 24h. Luciferase reporter activity was then measured. EC50 values were calculated by using standard methods known in the art.
Luciferase reporter assay: 10 μL of supernatant from the assay was transferred to white 384-plate with flat bottom and squared wells. One pouch of QUANTI-Luc™ Plus was dissolved in 25 mL of water. 100 μL of QLC Stabilizer per 25 mL of QUANTI-Luc™ Plus solution was added. 50 μL of QUANTI-Luc™ Plus/QLC solution per well is then added. Luminescence is measured on a Platereader (e.g., Spectramax I3X (Molecular Devices GF3637001)).
Luciferase reporter activity was then measured. EC50 values were calculated by using standard methods known in the art.

Sequence of STING (Q86WV6 whole entry R71H/G230A/H232R/R293Q): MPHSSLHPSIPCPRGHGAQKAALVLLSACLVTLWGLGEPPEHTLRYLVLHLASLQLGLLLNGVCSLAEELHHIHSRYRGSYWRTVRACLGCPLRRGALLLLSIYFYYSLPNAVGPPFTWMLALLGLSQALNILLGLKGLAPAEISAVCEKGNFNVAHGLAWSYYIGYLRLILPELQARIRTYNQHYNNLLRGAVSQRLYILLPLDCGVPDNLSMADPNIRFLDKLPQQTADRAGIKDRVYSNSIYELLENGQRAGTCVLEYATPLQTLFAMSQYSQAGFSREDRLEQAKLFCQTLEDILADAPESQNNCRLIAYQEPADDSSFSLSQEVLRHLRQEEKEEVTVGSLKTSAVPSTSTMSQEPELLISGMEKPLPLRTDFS

| SMILES | EC50 [µM] |
| --- | --- |
| O=C(Nc1cc(Cl)cc(C(F)(F)F)c1)Nc1ccc2cc[nH]c2c1 [Compound 254] | 0.2 to 1 |
| N#Cc1cc2ccc(NC(=O)Nc3ccc(C(F)(F)F)cc3)cc2[nH]1 [Compound 255] | 5 to 100 |
| CC(=O)n1ccc2ccc(NC(=O)Nc3ccc(C(F)(F)F)cc3)cc21 [Compound 257] | 1 to 5 |
| N#Cc1c[nH]c2cc(NC(=O)Nc3ccc(C(F)(F)F)cc3)ccc12 [Compound 258, 3-(3-cyano-1H-indol-6-yl)-1-[4-(trifluoromethyl)phenyl]urea] | 0.2 to 1 |
| CCCCC1CCC(NC(=O)Nc2ccc3cc(Cl)[nH]c3c2)CC1 (stereo not drawn) [Compound 260] | 5 to 100 |
| O=C(Nc1ccc(C(F)(F)F)cc1)Nc1cc2[nH]ccc2cc1F [Compound 262] | 5 to 100 |
| O=C(Nc1ccc(C(F)(F)F)cc1)Nc1ccc2c3c([nH]c2c1)CCCC3 [Compound 263] | 5 to 100 |
| CN(C(=O)Nc1ccc(C(F)(F)F)cc1)c1ccc2cc[nH]c2c1 [Compound 264] | 5 to 100 |
| Cc1cc2cc[nH]c2cc1NC(=O)Nc1ccc(C(F)(F)F)cc1 [Compound 265] | 5 to 100 |
| Cn1ccc2ccc(NC(=O)Nc3ccc(C(F)(F)F)cc3)cc21 [Compound 268] | 5 to 100 |
| O=C(Nc1ccc2cc[nH]c2c1)Nc1ccc(C(F)(F)F)cn1 [Compound 269] | 0.2 to 1 |
| CCCCc1cccc(NC(=O)Nc2ccc3cc[nH]c3c2)c1 [Compound 270] | 0.04 to 0.2 |
| CCCCC1CCC(NC(=O)Nc2ccc3cc[nH]c3c2)CC1 (stereo not drawn) [Compound 271] | 0.2 to 1 |
| O=C(Nc1cccc(C(F)(F)F)c1)Nc1ccc2cc[nH]c2c1 [Compound 272] | 0.2 to 1 |
| CCCCc1ccc(NC(=O)Nc2ccc3cc[nH]c3c2)cc1 [Compound 273] | 0.2 to 1 |
| CNC(=O)Nc1ccc2[nH]cc(NC(=O)Nc3ccc(C(F)(F)F)cc3)c2c1 [Compound 275] | 1 to 5 |
| CC(C)c1ccc(-c2nnc(NC(=O)Nc3ccc4[nH]ccc4c3)s2)cc1 [Compound 279] | 5 to 100 |
| O=C(Nc1ccc(S(=O)(=O)C(F)(F)F)cc1)Nc1ccc2[nH]ccc2c1 [Compound 289] | 5 to 100 |
| O=C(Nc1ccc(S(F)(F)(F)(F)F)cc1)Nc1ccc2[nH]ccc2c1 [Compound 291] | 1 to 5 |
| O=C(Nc1ccc2[nH]ccc2c1)Nc1cc(C2CCC2)no1 [Compound 302] | 5 to 100 |
| O=C(Nc1ccc2[nH]ccc2c1)Nc1cc2cccc(C(F)(F)F)n2n1 [Compound 309] | 5 to 100 |
| CCC(NC(=O)Nc1ccc2[nH]ccc2c1)c1cccc(C(F)(F)F)c1 (stereo not drawn) [Compound 313] | 5 to 100 |
| O=C(Nc1cccc(S(=O)(=O)C(F)(F)F)c1)Nc1ccc2[nH]ccc2c1 [Compound 315] | 5 to 100 |
| O=C(NCc1cc(Cl)cc(C(F)(F)F)c1)Nc1ccc2[nH]ccc2c1 [Compound 318] | 5 to 100 |

same assay, conditions: 15 μM 2′3′cGAMP, 24h, numeric bounds

| SMILES | EC50 [µM] |
| --- | --- |
| O=C(Nc1ccc(C(F)(F)F)cc1)Nc1ccc2cc(-c3ccccc3)[nH]c2c1 [Compound 256] | > 100 |
| Cc1c(NC(=O)Nc2ccc(C(F)(F)F)cc2)ccc2cc[nH]c12 [Compound 259] | > 30 |
| CCc1ccc(NC(=O)Nc2ccc3c(NC(=O)Nc4ccc(CC)cc4)c[nH]c3c2)cc1 [Compound 261] | > 100 |
| CCCCC1CCC(NC(=O)Nc2ccc3cc(C)[nH]c3c2)CC1 (stereo not drawn) [Compound 266] | > 100 |
| CN(C(=O)Nc1ccc2cc[nH]c2c1)c1ccc(C(F)(F)F)cc1 [Compound 267] | > 67.1 |
| O=C(NCC1(c2cccc(Cl)c2)CCOCC1)Nc1ccc2[nH]ccc2c1 [Compound 274] | > 30 |
| N#Cc1ccc(CNC(=O)Nc2ccc3[nH]ccc3c2)c(C(F)(F)F)c1 [Compound 276] | > 30 |
| O=C(Nc1ccc(Oc2c(F)cccc2F)cc1)Nc1ccc2[nH]ccc2c1 [Compound 278] | > 30 |
| O=C(Nc1cccc(S(=O)(=O)N2CCCC2)c1)Nc1ccc2[nH]ccc2c1 [Compound 282] | > 30 |
| O=C(Nc1ccc2[nH]ccc2c1)Nc1ccc2[nH]ccc2c1 [Compound 283] | > 30 |
| O=C(Nc1ccc(S(=O)(=O)N2CCCC2)cc1)Nc1ccc2[nH]ccc2c1 [Compound 284] | > 30 |
| O=C(Nc1cnc2cc(C(F)(F)F)ccc2c1)Nc1ccc2[nH]ccc2c1 [Compound 285] | > 30 |
| O=C(Nc1cnc2ccc(C(F)(F)F)cc2c1)Nc1ccc2[nH]ccc2c1 [Compound 286] | > 30 |
| O=C(Nc1ccc2nc(C(F)(F)F)ccc2c1)Nc1ccc2[nH]ccc2c1 [Compound 287] | > 30 |
| CC(Cc1cccc(C(F)(F)F)c1)NC(=O)Nc1ccc2[nH]ccc2c1 (stereo not drawn) [Compound 288] | > 30 |
| O=C(NCCc1ncc(C(F)(F)F)cc1Cl)Nc1ccc2[nH]ccc2c1 [Compound 290] | > 30 |
| CN(C)S(=O)(=O)c1ccc(NC(=O)Nc2ccc3[nH]ccc3c2)cc1 [Compound 292] | > 30 |
| O=C(Nc1cc(F)c(N2CCC(F)(F)CC2)c(F)c1)Nc1ccc2[nH]ccc2c1 [Compound 293] | > 30 |
| O=C(NCCN1CCC(Cc2ccccc2)CC1)Nc1ccc2[nH]ccc2c1 [Compound 294] | > 30 |
| O=C(NCCOc1cccc(Br)c1)Nc1ccc2[nH]ccc2c1 [Compound 295] | > 30 |
| O=C(NCc1ccc(OCC(F)(F)F)nc1)Nc1ccc2[nH]ccc2c1 [Compound 296] | > 30 |
| CCOc1ccc(-c2cc(NC(=O)Nc3ccc4[nH]ccc4c3)on2)cc1 [Compound 297] | > 30 |
| O=C(NCCCc1cncc(C(F)(F)F)c1)Nc1ccc2[nH]ccc2c1 [Compound 298] | > 30 |
| O=C(Nc1ccc2[nH]ccc2c1)Nc1cc2ccc(C(F)(F)F)cn2n1 [Compound 299] | > 30 |
| CCS(=O)(=O)c1ccc(CNC(=O)Nc2ccc3[nH]ccc3c2)cn1 [Compound 300] | > 30 |
| CCn1cc(CNC(=O)Nc2ccc3[nH]ccc3c2)cn1 [Compound 301] | > 30 |
| O=C(Nc1cccc(C(F)F)c1)Nc1ccc2[nH]ccc2c1 [Compound 303] | > 30 |

| SMILES | EC50 [µM] |
| --- | --- |
| O=C(NCCc1ccccc1Br)Nc1ccc2[nH]ccc2c1 [Compound 304] | > 30 |
| CC(C)(C)c1cc(NC(=O)Nc2ccc3[nH]ccc3c2)on1 [Compound 305] | > 30 |
| Cn1cc(NC(=O)Nc2ccc3[nH]ccc3c2)cn1 [Compound 306] | > 30 |
| N#Cc1cc(F)cc(NC(=O)Nc2ccc3[nH]ccc3c2)c1 [Compound 307] | > 30 |
| N#Cc1ccc(OC2CCC(NC(=O)Nc3ccc4[nH]ccc4c3)CC2)cc1 (stereo not drawn) [Compound 308] | > 30 |
| CC1(CNC(=O)Nc2ccc3[nH]ccc3c2)CCC(F)(F)CC1 [Compound 311] | > 30 |
| CN(C)S(=O)(=O)c1cccc(NC(=O)Nc2ccc3[nH]ccc3c2)c1 [Compound 312] | > 30 |
| O=C(NCCc1c[nH]c2cc(OC(F)(F)F)ccc12)Nc1ccc2[nH]ccc2c1 [Compound 314] | > 30 |
| CC(C)(C)OC(=O)N1CC(CCNC(=O)Nc2ccc3[nH]ccc3c2)C1 [Compound 316] | > 30 |
| O=C(Nc1ccc2[nH]ccc2c1)NC1CCc2ccc(C(F)(F)F)cc21 (stereo not drawn) [Compound 317] | > 30 |
| O=C(NCc1ccc(C(F)(F)F)c(Cl)c1)Nc1ccc2[nH]ccc2c1 [Compound 319] | > 30 |
| O=C(NCc1ccc(Cl)c(C(F)(F)F)c1)Nc1ccc2[nH]ccc2c1 [Compound 320] | > 30 |
| O=C(NCCc1ccc(OC(F)(F)F)cc1)Nc1ccc2[nH]ccc2c1 [Compound 321] | > 30 |
| Cc1cc(CNC(=O)Nc2ccc3[nH]ccc3c2)nn1C [Compound 322] | > 30 |
| O=C(NCCc1c(F)cccc1Cl)Nc1ccc2[nH]ccc2c1 [Compound 323] | > 30 |
| Cc1ccccc1CCNC(=O)Nc1ccc2[nH]ccc2c1 [Compound 324] | > 30 |
| CC(CNC(=O)Nc1ccc2[nH]ccc2c1)c1ccccc1 (stereo not drawn) [Compound 325] | > 30 |
| O=C(Nc1ccc2[nH]ccc2c1)N[C@@H]1C[C@H]1c1ccccc1 [Compound 326] | > 30 |
| O=C(NCCc1ccccc1)Nc1ccc2[nH]ccc2c1 [Compound 327] | > 30 |
| CCCCCNC(=O)Nc1ccc2[nH]ccc2c1 [Compound 328] | > 30 |
| CC(C)CCNC(=O)Nc1ccc2[nH]ccc2c1 [Compound 329] | > 30 |
| O=C(NCCC1CC1)Nc1ccc2[nH]ccc2c1 [Compound 330] | > 30 |
| O=C(NCC1CCC1)Nc1ccc2[nH]ccc2c1 [Compound 331] | > 30 |
| CC(C)(C)n1cc(NC(=O)Nc2ccc3[nH]ccc3c2)cn1 [Compound 332] | > 30 |
| O=C(NCc1cnccn1)Nc1ccc2[nH]ccc2c1 [Compound 333] | > 30 |
| O=C(Nc1ccc2[nH]ccc2c1)Nc1ccon1 [Compound 334] | > 30 |
| Cc1cc(C)nc(NC(=O)Nc2ccc3[nH]ccc3c2)c1 [Compound 335] | > 30 |

Reference: US20230092163A1, “COMPOUNDS AND COMPOSITIONS FOR TREATING CONDITIONS ASSOCIATED WITH STING ACTIVITY” (IFM Due, Inc., priority 2019, published 2023)
